In patent US9821173B2, “Anti-cancer agents and methods of use” (Case Western Reserve University, priority 2013, dated 2017):
“And” between values parts separate entries of the source, which are not always exact repeats. Equal entries are not always repeated.

Key:
HeLa cells [1] = settings: for fold more sensitive to IR exposure than cells treated with IR alone: HeLa pre-treated 24 hour with compound 3 (4 μM) or compound 4 (7 μM)
Procedure: HeLa cells were plated at a density of 250,000-300,000 cells/mL. After 24 hr cells, the cells were irradiated in a dose dependent manner (0-4 Gy) using a ^137Cs gamma source. After treatment, the cells were trypsinized and plated at a density between 300-4000 cells in 60 mm dishes. Cells were allowed to grow colonies (1 colony≧50 cells) for 10-14 days, stained with 0.25% crystal violet, and manually counted to measure the number of colonies. Survival fractions were normalized against positive controls (colony formation with no radiation) and plotted as the log percent survival versus dose of radiation. Each experiment was performed an average of four (4) times with cells propagated on several different days.
In this case, we measured the effects of combining these (phosphine)gold(I) indoles with ionizing radiation (IR), a widely used therapy used to treat solid tumors. […] After this time frame, media containing the (phosphine)gold(I) indole was removed and replaced with fresh media. The cells were then irradiated in a dose-dependent fashion from 0 to 6 Gy. Cell viability was assessed using a clonogenic assay that measures colony formation and thus accurately defines the cytotoxic effects of IR exposure. […] The initial linear phase is particularly important as this reflects repair of non-lethal damage inflicted by clinically-relevant doses of IR (˜2 Gy).

PKG1 = target: T1, PKG1 (Homo sapiens, UniProt Q13976); assay: Kinase inhibition screening (Luceome); format: biochemical; settings: 10 μM
T1 construct: purchased Luceome Biotechnologies (Tucson, Ariz.)
T1 sequence (Q13976 whole entry): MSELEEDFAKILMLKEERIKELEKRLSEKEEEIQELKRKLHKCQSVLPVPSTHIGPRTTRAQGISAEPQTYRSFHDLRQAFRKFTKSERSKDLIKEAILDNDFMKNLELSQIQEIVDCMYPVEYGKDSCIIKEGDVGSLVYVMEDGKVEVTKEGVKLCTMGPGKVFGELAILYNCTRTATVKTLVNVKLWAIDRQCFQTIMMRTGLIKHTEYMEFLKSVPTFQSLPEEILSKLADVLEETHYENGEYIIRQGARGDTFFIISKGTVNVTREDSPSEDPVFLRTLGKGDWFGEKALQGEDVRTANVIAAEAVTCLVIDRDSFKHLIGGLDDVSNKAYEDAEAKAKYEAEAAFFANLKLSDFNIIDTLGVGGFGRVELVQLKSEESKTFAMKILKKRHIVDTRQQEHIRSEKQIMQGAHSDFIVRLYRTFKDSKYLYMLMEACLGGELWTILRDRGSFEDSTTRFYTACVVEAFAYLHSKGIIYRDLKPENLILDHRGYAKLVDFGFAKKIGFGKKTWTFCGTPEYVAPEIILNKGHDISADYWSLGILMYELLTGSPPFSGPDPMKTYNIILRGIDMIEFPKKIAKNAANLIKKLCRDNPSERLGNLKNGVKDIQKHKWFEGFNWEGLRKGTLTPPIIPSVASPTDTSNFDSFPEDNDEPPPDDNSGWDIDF
Description: (§1) It is well established that dysfunctional and unregulated kinase activity plays significant roles in cancer initiation and progression. […] Inspection of the data provides several interesting observations. […] These inhibitory effects at this concentration are consistent with their measured IC50 values that are also in the μM range (Table 1). In addition, several kinases display overlapping inhibitory responses to both gold(I) compounds. Many of these are of particular interest since they are involved in cancer initiation and/or progression. For example, the Aurora kinase family members, Aurora A and Aurora B, as well as the MARK2 and MARK3 kinases function during mitosis to regulate cell division. These kinases are important therapeutic targets as their activities are often deregulated in many types of cancers. Other kinases such as RPS6KA3 and MLK3 are involved in the MAP kinase and JNK pathways which are also important in cancer progression.

PDGFRB = target: T2, PDGFRB (Homo sapiens, UniProt P09619); assay: Kinase inhibition screening (Luceome); format: biochemical; settings: 10 μM
T2 construct: purchased Luceome Biotechnologies (Tucson, Ariz.)
T2 sequence (P09619 33-1106): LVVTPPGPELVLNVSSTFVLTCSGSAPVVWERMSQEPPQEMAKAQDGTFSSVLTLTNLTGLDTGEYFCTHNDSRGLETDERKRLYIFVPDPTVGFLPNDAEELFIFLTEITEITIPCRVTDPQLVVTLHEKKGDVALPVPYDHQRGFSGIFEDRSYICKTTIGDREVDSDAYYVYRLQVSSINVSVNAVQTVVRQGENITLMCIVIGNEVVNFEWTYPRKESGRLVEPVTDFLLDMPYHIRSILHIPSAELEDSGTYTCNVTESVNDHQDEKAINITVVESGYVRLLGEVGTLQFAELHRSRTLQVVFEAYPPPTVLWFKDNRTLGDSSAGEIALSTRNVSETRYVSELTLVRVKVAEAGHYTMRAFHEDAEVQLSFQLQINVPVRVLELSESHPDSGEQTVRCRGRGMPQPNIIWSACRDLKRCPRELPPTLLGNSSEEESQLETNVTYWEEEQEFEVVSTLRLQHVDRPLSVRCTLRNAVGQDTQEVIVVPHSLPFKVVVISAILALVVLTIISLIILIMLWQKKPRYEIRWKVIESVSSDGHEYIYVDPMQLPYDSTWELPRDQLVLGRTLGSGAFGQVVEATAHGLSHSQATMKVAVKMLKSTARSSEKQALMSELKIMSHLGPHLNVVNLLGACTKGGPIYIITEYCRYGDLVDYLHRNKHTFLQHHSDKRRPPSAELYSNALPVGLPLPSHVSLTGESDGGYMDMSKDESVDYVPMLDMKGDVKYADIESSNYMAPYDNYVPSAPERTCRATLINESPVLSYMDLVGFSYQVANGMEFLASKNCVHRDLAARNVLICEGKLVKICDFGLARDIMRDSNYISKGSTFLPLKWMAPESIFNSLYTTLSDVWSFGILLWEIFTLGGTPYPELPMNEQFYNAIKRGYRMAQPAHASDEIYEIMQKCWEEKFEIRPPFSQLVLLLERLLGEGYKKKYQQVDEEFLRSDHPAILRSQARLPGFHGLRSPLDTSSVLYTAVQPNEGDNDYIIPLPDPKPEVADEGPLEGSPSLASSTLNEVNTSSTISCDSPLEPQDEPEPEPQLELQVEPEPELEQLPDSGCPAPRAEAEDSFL
Description: as §1

P38-γ = target: T3, P38-γ (Homo sapiens, UniProt P53778); assay: Kinase inhibition screening (Luceome); format: biochemical; settings: 10 μM
T3 construct: purchased Luceome Biotechnologies (Tucson, Ariz.)
T3 sequence (P53778 whole entry): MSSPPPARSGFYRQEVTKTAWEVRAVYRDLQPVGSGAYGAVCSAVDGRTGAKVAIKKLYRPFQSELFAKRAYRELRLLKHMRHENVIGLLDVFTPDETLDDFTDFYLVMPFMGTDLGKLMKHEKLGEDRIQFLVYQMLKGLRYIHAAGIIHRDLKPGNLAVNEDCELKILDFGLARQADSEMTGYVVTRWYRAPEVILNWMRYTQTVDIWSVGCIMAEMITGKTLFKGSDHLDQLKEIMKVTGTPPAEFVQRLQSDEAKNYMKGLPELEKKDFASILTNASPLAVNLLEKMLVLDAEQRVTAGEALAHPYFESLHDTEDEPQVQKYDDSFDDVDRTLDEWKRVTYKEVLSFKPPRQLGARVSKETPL
Description: as §1

PKC-δ = target: T4, PKC-δ (Homo sapiens, UniProt Q05655); assay: Kinase inhibition screening (Luceome); format: biochemical; settings: 10 μM
T4 construct: purchased Luceome Biotechnologies (Tucson, Ariz.)
T4 sequence (Q05655 whole entry): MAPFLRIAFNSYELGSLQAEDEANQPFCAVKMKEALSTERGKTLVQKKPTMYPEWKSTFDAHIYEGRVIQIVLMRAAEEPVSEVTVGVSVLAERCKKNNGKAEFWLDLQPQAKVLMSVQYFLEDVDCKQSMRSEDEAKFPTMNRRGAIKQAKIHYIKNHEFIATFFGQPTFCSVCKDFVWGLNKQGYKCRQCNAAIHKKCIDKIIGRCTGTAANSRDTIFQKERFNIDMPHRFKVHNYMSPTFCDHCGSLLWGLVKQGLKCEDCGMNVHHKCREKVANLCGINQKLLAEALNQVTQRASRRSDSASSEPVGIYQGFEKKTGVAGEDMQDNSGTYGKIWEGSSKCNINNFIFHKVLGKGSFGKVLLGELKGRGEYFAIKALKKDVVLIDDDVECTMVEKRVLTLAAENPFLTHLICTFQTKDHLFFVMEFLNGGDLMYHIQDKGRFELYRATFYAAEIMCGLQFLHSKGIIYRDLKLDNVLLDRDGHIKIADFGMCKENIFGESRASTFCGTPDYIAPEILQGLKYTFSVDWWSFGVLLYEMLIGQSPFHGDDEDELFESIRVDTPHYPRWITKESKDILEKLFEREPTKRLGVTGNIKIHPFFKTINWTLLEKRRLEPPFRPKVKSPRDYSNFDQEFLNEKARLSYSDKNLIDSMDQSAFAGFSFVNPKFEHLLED
Description: as §1

HeLa cells [2] = assay: Measurements of apoptosis, dual parameter FACS with PI and annexin V; format: cell-based; settings: 50 μM
Procedure: Cells were plated at 200,000/ml, Au(I)-Indole analogs were added in a dose-dependent fashion for 12-24 hr. Cells were trypsinized and then washed with cold PBS. After discarding the supernatant, a 100 μL solution containing 1× annexin-binding buffer, 5 μl of alexa fluor 488 Annexin V and 1 μg/ml of PI solution was added to each sample. The cells were incubated at room temperature for 15 min. After this incubation period, an additional 400 μl of 1× annexin-binding buffer was added. Cells were analyzed using a band pass filters with wavelengths of 525/40 nm and 620/30 nm with a Beckman Coulter XL flow cytometer.

CEM-C7 = assay: Cell proliferation / cytotoxicity assay; format: cell-based; settings: cell viability, cell-titer blue, up to 48 hours
Procedure: (§2) HeLa, MCF-7, HCT-116, and CEM-C7 were obtained from the American Type Culture Collection (Manassas, Va., USA). All adherent cell lines were maintained in Dulbecco's modified Eagle's medium (Mediatech) with 100 U/ml penicillin (Invitrogen), 100 μg/ml streptomycin (Invitrogen), 0.25 μg/ml amphotericin B (Invitrogen), and 10% fetal bovine serum (USA Scientific) and incubated at 37° C. with 5% CO2. CEM cells were maintained in RPMI-1640 media supplemented with 100 U/ml penicillin, 100 μg/ml streptomycin, 0.25 μg/ml amphotericin B, and 10% fetal bovine serum and incubated at 37° C. with […].
(§3) Cells were plated at a density of 7,000-13,000/well in 200 μl of media overnight in a 96-well plate. Each (phosphine)gold(I)-indole was added to wells in a dose-dependent manner (0.01-100 μM). Cells were treated with compounds for variable time periods (8-48 hours). With adherent cell lines, medium was removed from the wells and then 100 μl of fresh medium was added into each well followed by the addition of 20 μl of cell titer-blue reagent (Promega). Cells were incubated with reagent for 1-4 hrs and the optical density of samples was read at 560 nm using a microplate reader. The background absorbance of dye with media was subtracted from each sample. Cell viability was then normalized against cells treated with DMSO. IC50 values were obtained using a fit of the data to Equation 1: Y=100%/[1+(IC50/Inhibitor)] (1)
(§4) where y is the fraction of viable cells, IC50 is the concentration of inhibitor that inhibits 50% cell growth, and Inhibitor is the concentration of compound tested.
(§5) The cellular effects of these (phosphine)gold(I) indoles were tested against several cancer cell lines including HeLa (cervical cancer), MCF-7 (breast cancer), HCT-116 (colon cancer), and CEM-C7 (leukemia). The dose-dependency of each modified indole on cell viability was assessed using a cell-titer blue assay as previously described. In these experiments, cells were exposed to variable concentrations of each (phosphine)gold(I) indole (0.01-100 μM) for up to 48 hours and then assessed for viability.
Defining this mechanism of cell death is important as necrosis can cause various side-effects including septic shock and kidney failure that can obviously compromise patient health.

HeLa = assay: Cell proliferation assay (cell-titer blue); format: cell-based; settings: cell viability, cell-titer blue, up to 48 hours
Procedure: as §2, §3, §4, §5

MCF-7 = assay: Cell proliferation assay (cell-titer blue); format: cell-based; settings: cell viability, up to 48 hours
Procedure: as §2, §3, §4, §5

HCT-116 = assay: Cell proliferation assay (cell-titer blue); format: cell-based; settings: cell viability, up to 48 hours, read-out: IC50 HCT116
Procedure: as §2, §3, §4, §5

γH2AX foci in HeLa cells = settings: 2 Gy IR, compound 4 7 μM; for number of γH2AX foci 30 minutes post IR exposure: compound 3 4 μM
Procedure: HeLa cells were plated at a density of 40,000 cells/ml in 24-well glass bottom plate for 24 hr. After this time, cells were treated with Au(I)indole compounds at desired concentration for an additional 24 hr. The cells were irradiated at 2 Gys. Cells were fixed with 4% paraformaldehyde for 15 min at 37° C. at time points corresponding to 0.5, 1, 2, and 4 hrs. Cells were washed with 1×PBS and permeabilized in 0.2% Triton X-100 for 15 min at 37° C. […] Mouse monoclonal anti-phospho-histone H2AX antibody (Millipore) was applied (1:500 dilution) to each well for one hour. After washing several times with blocking buffer, a 1:500 dilution of goat anti-mouse secondary antibody conjugated with Alexa 647 (Invitrogen) was added for 1 hr. The wells were then washed several times, and the number of γH2AX foci per nuclei was measured using an iCyte laser scanning cytometer with a red long pass filter (650 nm). To collect accurate data, a threshold was set to minimize noise produced by unrelated events using iNovator software (version 3.4.2.52). Each well was scanned using a 40× magnification with 0.25 μm× step and a field size of 250×186 μm (1000×768 pixels). Data were plotted as the percentage of cells as a function of foci number. The resulting histogram was fit to the equation for a Gaussian distribution (Equation 2). Y=1/(2πσ^2)^1/2e^−[(χ−m)2/2σ2] (2)
where Y is the percentage of cells, μ is the mean, and σ is the variance used to define the width of the mean.

HeLa cells [3] = assay: Fluorescence microscopy, propidium iodide uptake and annexin V staining; format: cell-based; settings: 50 μM; for annexin V staining: 12 hours; for PI staining / uptake: 24 hours
Procedure: Cells were plated at 75,000-125,000/ml for 24 hours. […] Alexa fluro 488 Annexin V and Propidium Iodide were added to each well and images were taken on Leica CTR 6500 microscope using green (480/40 nm) and red (560/40 nm) excitation band pass filters.

Row | Structure (SMILES) | fold more sensitive to IR exposure than cells treated with IR alone (HeLa cells [1]) [fold] | % Inhibition PKG1 (PKG1) [%] | % Inhibition PDGFRB (PDGFRB) [%] | % Inhibition P38-γ (P38-γ) [%] | % Inhibition PKC-δ (PKC-δ) [%] | Early Apoptotic (%) (HeLa cells [2]; HeLa, 24 hours) | Late Apoptotic (%) (HeLa cells [2]; HeLa, 24 hours) | Live (%) (HeLa cells [2]; HeLa, 24 hours) | Necrotic (%) (HeLa cells [2]; HeLa, 24 hours) | IC50 (CEM-C7) [µM] | IC50 (HeLa) [µM] | IC50 (MCF-7) [µM] | IC50 (HCT-116) [µM] | number of γH2AX foci 30 minutes post IR exposure (γH2AX foci in HeLa cells) | annexin V staining (HeLa cells [3]) | PI staining / uptake (HeLa cells [3]) | further results
1 | CC(C)(C)OC(=O)n1ccc2c[c]([Au-][P+](c3ccccc3)(c3ccccc3)c3ccccc3)ccc21 [Compound 3, 5-{Triphenylphosphine aurate(I)}-tert-butyl1H-indole-1-carboxylate] | ~4 | 5.4 | 8.1 | 0 | 0 | 8.8% and 8.8 +/− 0.7% | 4.3% and 4.3 +/− 1.8% | 84.4 +/− 3.0% | 2.4 +/− 0.8% | 19.9 | 2.5 | 16.2 | 11.5 | lower numbers of γH2AX foci | induce early stage apoptosis | significant PI uptake is not observed | dose-modifying factor (HeLa cells [1]; ionizing radiation, HeLa): 4; fold increase in early stage apoptosis compared to DMSO (HeLa cells [2]; 24 hours): 6 fold; fold increase in late stage apoptosis compared to DMSO (HeLa cells [2]; 24 hours): ~10 fold
2 | CC(C)(C)OC(=O)n1ccc2c[c]([Au-][P+](C3CCCCC3)(C3CCCCC3)C3CCCCC3)ccc21 [Compound 4, 5-{Tricyclohexylphosphine aurate(I)}-tert-butyl1H-indole-1-carboxylate] | ~4 | 3.2 | 15.2 | 0 | 3.8 | 5.3% and 5.3 +/− 1.1% | 8.1% and 8.1 +/− 1.8% | 68.4 +/− 0.8% | 18.8 +/− 2.5% | 9.7 | 16.2 | 34.4 | 22.8 | increase in the number of γH2AX foci | induce early stage apoptosis | more intense PI staining | fold higher amount of late-stage apoptotic cells compared to compound 3 (HeLa cells [2]; HeLa): 2 fold; fold higher amount of necrosis compared to compound 3 (HeLa cells [2]; HeLa): ~9 fold; γH2AX foci 4 hours after IR exposure (γH2AX foci in HeLa cells): a significant number of γH2AX foci persist
